In patent publication US12303509B2, “Compounds for the treatment of BRAF-associated diseases and disorders” (Pfizer Inc., priority 2020, dated 2025):

Columns and labels:
[1] = molecular target: full-length FLAG-tagged B-Raf(V600E) (Homo sapiens (Human), UniProt P15056, V600E); experiment: BRAF V600E enzyme assay (TR-FRET competitive displacement); type: binding; settings: averaged IC50; TR-FRET tracer displacement, 60 min
In short: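 Displacement of 50 nM Tracer 1710 from 5 nM full-length N-terminally FLAG-tagged B-Raf(V600E), detected by TR-FRET with 0.5 nM Eu anti-FLAG antibody, in 25 mM HEPES pH 7.4, 10 mM MgCl2, 2% DMSO; 60 min at ~22 °C. Compounds 11-point, 3-fold from 10 μM; IC50 from 4-parameter fit at 50 POC.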

[2] = tested on: NCI-H1666 (BRAF G466V) cells; experiment: Proliferation assay (CellTiter-Glo) in NCI-H1666 cells; type: cell-based; settings: Homo sapiens, 3-5 day incubation
Experimental: The compounds of Example 13, Example 14 and Example 126 were evaluated in a proliferation assay in two mutant BRAF Class III cell lines: NCI-H1666 (BRAF^G466V) and WM3629 cells (BRAF^D594G/NRAS^G12D). NCI-H1666 cells were obtained from the American Type Culture Collection (ATCC, Rockville, MD) and WM3629 cells were obtained from Rockland Immunochemicals (Limerick, PA). Cells were maintained in RPMI growth medium containing 10% FBS.
Cells were harvested according to standard protocols, counted, and plated onto flat-bottom, 96-well tissue culture plates (Costar #3599) at 2000-5000 cells/well in 100 μL/well of growth medium containing 10% FBS. Cells were incubated at 37° C. with 5% CO2 overnight then treated with inhibitors prepared as a 9-point, 1:3.33 fold dilution series with final compound concentrations ranging from 66 pM-10 μM and a constant DMSO concentration of 0.25%. Control wells contained 0.25% DMSO alone. After a 3-5 day incubation at 37° C., 5% CO2, cell viability was determined by adding 100 μL CellTiter-Glo® Reagent (Promega) to each well and incubated for 15 minutes at room temperature. “Day 0” controls were determined by performing CellTiter-Glo© assay on DMSO control wells at the time of compound treatment (“Day 0” control=0 POC). Luminescence was measured on a Cytation 5 plate reader (BioTek) and values were converted to POC using the following equation:
[formula] • Where: • Xmax Average DMSO Controls • Xmin Average “Day 0” DMSO Controls • IC50 values were calculated using a 4-parameter fit in XLfit software and are shown in Table A2.

BCRP = BCRP (Homo sapiens (Human), UniProt Q9UNQ0); experiment: BCRP MDCKII permeability assay: efflux ratio; type: in vitro ADME; settings: dog
BCRP, sequence (Q9UNQ0 whole entry): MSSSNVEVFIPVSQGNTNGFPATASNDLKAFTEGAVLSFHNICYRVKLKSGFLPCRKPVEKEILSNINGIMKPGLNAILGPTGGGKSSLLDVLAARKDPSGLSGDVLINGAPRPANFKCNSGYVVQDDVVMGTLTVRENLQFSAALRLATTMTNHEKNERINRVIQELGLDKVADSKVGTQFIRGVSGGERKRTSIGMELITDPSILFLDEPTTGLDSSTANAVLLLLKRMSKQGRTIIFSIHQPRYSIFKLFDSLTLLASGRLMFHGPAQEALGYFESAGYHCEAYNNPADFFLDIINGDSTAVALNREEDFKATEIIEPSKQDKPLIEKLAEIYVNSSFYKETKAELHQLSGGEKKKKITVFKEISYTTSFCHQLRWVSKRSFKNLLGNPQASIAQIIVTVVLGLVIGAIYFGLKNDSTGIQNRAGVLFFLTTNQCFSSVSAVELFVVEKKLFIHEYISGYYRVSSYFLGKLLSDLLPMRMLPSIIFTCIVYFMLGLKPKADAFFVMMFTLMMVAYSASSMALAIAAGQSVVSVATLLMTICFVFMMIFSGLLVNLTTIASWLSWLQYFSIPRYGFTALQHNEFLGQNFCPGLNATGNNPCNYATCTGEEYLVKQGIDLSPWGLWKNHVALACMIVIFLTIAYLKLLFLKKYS

full-length FLAG-tagged B-Raf(V600E), sequence (P15056 whole entry V600E): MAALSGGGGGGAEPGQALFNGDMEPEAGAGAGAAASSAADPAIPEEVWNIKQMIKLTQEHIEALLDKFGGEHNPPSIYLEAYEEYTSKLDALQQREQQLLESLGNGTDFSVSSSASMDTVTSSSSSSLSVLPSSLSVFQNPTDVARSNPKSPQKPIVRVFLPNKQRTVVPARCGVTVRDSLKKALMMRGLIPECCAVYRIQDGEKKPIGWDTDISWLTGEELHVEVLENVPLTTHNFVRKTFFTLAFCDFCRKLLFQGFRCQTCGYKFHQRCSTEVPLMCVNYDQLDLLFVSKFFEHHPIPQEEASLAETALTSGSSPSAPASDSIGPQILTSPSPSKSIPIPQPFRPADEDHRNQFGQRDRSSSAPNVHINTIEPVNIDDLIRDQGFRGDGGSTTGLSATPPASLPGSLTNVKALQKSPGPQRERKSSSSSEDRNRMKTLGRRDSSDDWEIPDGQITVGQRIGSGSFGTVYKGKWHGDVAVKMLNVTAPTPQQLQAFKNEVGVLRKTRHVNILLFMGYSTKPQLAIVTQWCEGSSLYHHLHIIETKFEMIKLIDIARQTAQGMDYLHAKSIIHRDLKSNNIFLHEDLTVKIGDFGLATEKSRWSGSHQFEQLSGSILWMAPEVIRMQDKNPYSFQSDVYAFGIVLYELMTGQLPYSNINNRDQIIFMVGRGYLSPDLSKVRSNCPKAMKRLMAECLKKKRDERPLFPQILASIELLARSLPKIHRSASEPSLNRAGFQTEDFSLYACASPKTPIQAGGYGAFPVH

SMILES	IC50 [1] [nM]	IC50 [2] [nM]	efflux ratio at 2 h, 1 µM (BCRP)
Cn1cnc2ccc(Nc3c(F)ccc(NS(=O)(=O)N4CC[C@@H](F)C4)c3Cl)c(F)c2c1=O [Example 14, (R)-N-(2-chloro-4-fluoro-3-((5-fluoro-3-methyl-4-oxo-3,4-dihydroquinazolin-6-yl)amino)phenyl)-3-fluoropyrrolidine-1-sulfonamide]	5	120	5.4
Cn1cnc2ccc(Nc3c(F)ccc(NS(=O)(=O)N4CC5CC4C5)c3Cl)c(F)c2c1=O [Example 13, N-(2-chloro-4-fluoro-3-((5-fluoro-3-methyl-4-oxo-3,4-dihydroquinazolin-6-yl)amino)phenyl)-2-azabicyclo[2.1.1]hexane-2-sulfonamide]	6	240	1.8
